Data: patent US20120264685A1 (priority 2009, published 2012)
Where a SMILES comes first, the peptide text is derived from it. [ ]: non-standard residue; d: D form. ξ: configuration not given here. ξαMeBip(2'-Et,4'-OMe) = CCc1cc(OC)ccc1-c1ccc(CC(C)(N)C(=O)O)cc1; ξBip(2'-Et-4'-OMe) = CCc1cc(OC)ccc1-c1ccc(CC(N)C(=O)O)cc1; ξαMePhe(2,6-F2) = CC(N)(Cc1c(F)cccc1F)C(=O)O; ξαMe(hhPhe) = CC(N)(CCCc1ccccc1)C(=O)O; ξαMePhe(2-F) = CC(N)(Cc1ccccc1F)C(=O)O; ξhhPhe = NC(CCCc1ccccc1)C(=O)O; ξαMeD = CC(N)(CC(=O)O)C(=O)O; ξαMeP = CC1(C(=O)O)CCCN1; Ac5c = NC1(C(=O)O)CCCC1; ξαMeS = CC(N)(CO)C(=O)O; Ac3c = NC1(C(=O)O)CC1

Legend:
male C57BL/6J mice = assay: Acute single dose 120-min time-course experiment, in vivo glucose reduction; parameters: unit not given here; settings: 2 μM/kg, oral, n = 8, Mean ± SEM
Experimental: Acute single dose 120-min time-course experiments were carried out in male C57BL/6J or db/db mice, age 8-12 weeks, bred in-house. The animals were housed in groups of 6 animals per cage, for a week, in order to habituate them to vivarium conditions (25+4° C., 60-65% relative humidity, 12:12 h light: dark cycle, with lights on at 7.30 am). All the animal experiments were carried out according to the internationally valid guidelines following approval by the ‘Zydus Research Center animal ethical committee’.
[…] On the day of experiment, food was withdrawn from all the cages, water was given ad-libitum and were kept for overnight fasting. Vehicle (normal saline)/test/standard compounds were administered intraperitoneally (i.p.) or orally, on a body weight basis. Soon after the 0 min. blood collection from each animal, the subsequent blood collections were done at 30, 60 and 120 or upto 240 min., via retro-orbital route, under light ether anesthesia (Chen, D., et al., Diabetes Obesity Metabolism, 2005, 7, 307. Kim, J. G. et al., Diabetes, 2003, 52, 751).
The blood samples were centrifuged and the separated serum was immediately subjected for the glucose estimation. The serum for insulin estimation was stored at −70° C. until used for the insulin estimation. The glucose estimation was carried out with DPEC-GOD/POD method (Ranbaxy Fine Chemicals Limited, Diagnostic division, India), using Spectramax-190, in 96-microwell plate reader (Molecular devices Corporation, Sunnyvale, Calif.). […] The AUC and BCAUC obtained from graphs were analyzed for one way ANOVA, followed by Dunnett's post test, using Graph Pad prism software. Furthermore, the insulin estimation was carried out using rat/mouse insulin ELISA kit (Linco research, Missouri USA).

[1] = test system: RIN5F (Rat Insulinoma) cells; assay: In vitro glucose-dependent insulin secretion (RIN5F cell assay); assay type: cell-based; settings: 16.7-mM glucose load, n = 3, mean ± S.D.
Experimental: RIN5F (Rat Insulinoma) cells were cultured in RPMI 1640 medium supplemented with sodium pyruvate (1 mM) HEPES and Glucose (4.5 g/L) in a humidified incubator (5% CO2), at 37° C. After trypsinization, RIN5F cells were seeded at a concentration of 0.2×10^6 cells per well, in 12 well plates. The cells were grown overnight to 80% confluence and insulin secretion experiments were performed as follows (Montrose-Rafizadeh C., et al., Mol. Cell. Endo. 1997, 130, 109.; Wang, X., et al., Endocrinology 2001, 5, 1820).
The cells were washed once with PBS solution followed by 40 min. incubation in fresh Krebs-Ringer Balanced Buffer containing NaCl (115 mmol/L), KCl (4.7 mmol/L), CaCl2 (1.28 mmol/L), MgSO4.7H2O (1.2 mmol/L), KH2PO4 (1.2 mmol/L), NaHCO3 (10 mmol/L) and HEPES (25 mmol/L), containing Glucose (1.1 mM) and B.S.A (0.5%), pH 7.4. The buffer was replaced after 40 min. and the cells were incubated (37° C.) with the test peptidomimetics, at different concentration, for 30 min., both in the presence (16.7 mM) and absence (0 mM) of glucose load. The supernatant was collected and the insulin amount was measured by ultra sensitive Rat insulin ELISA kit (Crystal Chem, IL). The protein was estimated in the supernatant using Bicinchoninic Acid kit, according to the manufacturer's protocol (Sigma Aldrich, MO). The total insulin content obtained in Pico-gram (pg) was divided with the total protein (μg) in order to normalize for differences in cell density between wells.

CCc1cc(OC)ccc1-c1ccc(CC(C)(NC(=O)C(C)(CC(=O)O)NC(=O)[C@H](CO)NC(=O)[C@@H](NC(=O)[C@H](Cc2ccccc2)NC(=O)[C@@H](NC(=O)CNC(=O)[C@H](CCC(N)=O)NC(=O)C(C)(C)NC(=O)[C@H](Cc2c[nH]cn2)NC(=O)[C@@H](N)C(C)C)[C@@H](C)O)[C@@H](C)O)C(=O)NC(CCCc2ccccc2)C(N)=O)cc1 (single isomer, unassigned) [Seq. ID. No. 59, VH-Aib-QGTFTS-(αMe-Asp)-(αMe-Bip(OMe))-(APPA)]
blood glucose level (in vivo glucose reduction) (male C57BL/6J mice; 0 min): 184 ± 2.5
blood glucose level (in vivo glucose reduction) (male C57BL/6J mice; 30 min): 115 ± 3.6
blood glucose level (in vivo glucose reduction) (male C57BL/6J mice; 60 min): 113 ± 4.2
blood glucose level (in vivo glucose reduction) (male C57BL/6J mice; 120 min): 110 ± 2.4

CCc1cc(OC)ccc1-c1ccc(CC(C)(NC(=O)[C@H](CC(=O)O)NC(=O)C(C)(CO)NC(=O)[C@@H](NC(=O)C(C)(Cc2c(F)cccc2F)NC(=O)[C@@H](NC(=O)CNC(=O)[C@H](CCC(=O)O)NC(=O)[C@H](CO)NC(=O)[C@H](Cc2c[nH]cn2)NC(=O)[C@@H](N)C(C)C)[C@@H](C)O)[C@@H](C)O)C(=O)NC(C)(CCCc2ccccc2)C(N)=O)cc1 (single isomer, unassigned) [Seq. ID. No. 177, VHSEGT-(αMe-2,6-diFPhe)-T-(αMe-Ser)-D-(αMe-Bip(OMe))-(αMe-APPA)]
blood glucose level (in vivo glucose reduction) (male C57BL/6J mice; 0 min): 183 ± 2.4
blood glucose level (in vivo glucose reduction) (male C57BL/6J mice; 30 min): 116 ± 3.1
blood glucose level (in vivo glucose reduction) (male C57BL/6J mice; 60 min): 112 ± 4.8
blood glucose level (in vivo glucose reduction) (male C57BL/6J mice; 120 min): 110 ± 2.5

CCc1cc(OC)ccc1-c1ccc(CC(C)(NC(=O)C(C)(CC(=O)O)NC(=O)[C@H](CO)NC(=O)[C@@H](NC(=O)[C@H](Cc2ccccc2)NC(=O)[C@@H](NC(=O)CNC(=O)[C@H](CCC(N)=O)NC(=O)[C@H](C)NC(=O)[C@H](Cc2c[nH]cn2)NC(=O)[C@@H](N)C(C)C)[C@@H](C)O)[C@@H](C)O)C(=O)NC(C)(CCCc2ccccc2)C(N)=O)cc1 (some centres unmarked) [compound 182] (H-VHAQGTFTS[ξαMeD][ξαMeBip(2'-Et,4'-OMe)][ξαMe(hhPhe)]-NH2)
Insulin secretion ([1]; 0.1 nM test compd.): 13.1 ± 0.11 pg/µg/h
Insulin secretion ([1]; 1 nM test compd.): 14.9 ± 0.17 pg/µg/h
Insulin secretion ([1]; 10 nM test compd.): 28.8 ± 0.44 pg/µg/h

CCc1cc(OC)ccc1-c1ccc(CC(C)(NC(=O)[C@H](CC(=O)O)NC(=O)[C@H](CO)NC(=O)[C@@H](NC(=O)[C@H](Cc2ccccc2)NC(=O)[C@@H](NC(=O)CNC(=O)[C@H](CCC(N)=O)NC(=O)C2(NC(=O)[C@H](Cc3c[nH]cn3)NC(=O)[C@@H](N)C(C)C)CC2)[C@@H](C)O)[C@@H](C)O)C(=O)NC(CCCc2ccccc2)C(N)=O)cc1 (some centres unmarked) [compound 10] (H-VH[Ac3c]QGTFTSD[ξαMeBip(2'-Et,4'-OMe)][ξhhPhe]-NH2)
Insulin secretion ([1]; 0.1 nM test compd.): 12.0 ± 0.14 pg/µg/h
Insulin secretion ([1]; 1 nM test compd.): 14.3 ± 0.12 pg/µg/h
Insulin secretion ([1]; 10 nM test compd.): 27.8 ± 0.32 pg/µg/h

CCc1cc(OC)ccc1-c1ccc(CC(C)(NC(=O)C(C)(CC(=O)O)NC(=O)[C@H](CO)NC(=O)[C@@H](NC(=O)[C@H](Cc2ccccc2)NC(=O)[C@@H](NC(=O)CNC(=O)[C@H](CCC(N)=O)NC(=O)C2(C)CCCN2C(=O)[C@H](Cc2c[nH]cn2)NC(=O)[C@@H](N)C(C)C)[C@@H](C)O)[C@@H](C)O)C(=O)NC(CCCc2ccccc2)C(N)=O)cc1 (some centres unmarked) [compound 60] (H-VH[ξαMeP]QGTFTS[ξαMeD][ξαMeBip(2'-Et,4'-OMe)][ξhhPhe]-NH2)
Insulin secretion ([1]; 0.1 nM test compd.): 15.6 ± 0.33 pg/µg/h
Insulin secretion ([1]; 1 nM test compd.): 21.8 ± 0.16 pg/µg/h
Insulin secretion ([1]; 10 nM test compd.): 35.6 ± 0.26 pg/µg/h

CCc1cc(OC)ccc1-c1ccc(CC(NC(=O)C(C)(CC(=O)O)NC(=O)C(C)(CO)NC(=O)[C@@H](NC(=O)C(C)(Cc2c(F)cccc2F)NC(=O)[C@@H](NC(=O)CNC(=O)[C@H](CCC(N)=O)NC(=O)C2(C)CCCN2C(=O)[C@H](Cc2c[nH]cn2)NC(=O)[C@@H](N)C(C)C)[C@@H](C)O)[C@@H](C)O)C(=O)NC(C)(CCCc2ccccc2)C(N)=O)cc1 (some centres unmarked) [compound 126] (H-VH[ξαMeP]QGT[ξαMePhe(2,6-F2)]T[ξαMeS][ξαMeD][ξBip(2'-Et-4'-OMe)][ξαMe(hhPhe)]-NH2)
Insulin secretion ([1]; 0.1 nM test compd.): 16.6 ± 0.41 pg/µg/h
Insulin secretion ([1]; 1 nM test compd.): 22.9 ± 0.32 pg/µg/h
Insulin secretion ([1]; 10 nM test compd.): 36.6 ± 0.19 pg/µg/h

CCc1cc(OC)ccc1-c1ccc(CC(C)(NC(=O)C(C)(CC(=O)O)NC(=O)[C@H](CO)NC(=O)[C@@H](NC(=O)C(C)(Cc2ccccc2F)NC(=O)[C@@H](NC(=O)CNC(=O)[C@H](CCC(N)=O)NC(=O)[C@H](C)NC(=O)[C@H](Cc2c[nH]cn2)NC(=O)[C@@H](N)C(C)C)[C@@H](C)O)[C@@H](C)O)C(=O)NC(CCCc2ccccc2)C(N)=O)cc1 (some centres unmarked) [compound 66] (H-VHAQGT[ξαMePhe(2-F)]TS[ξαMeD][ξαMeBip(2'-Et,4'-OMe)][ξhhPhe]-NH2)
Insulin secretion ([1]; 0.1 nM test compd.): 16.5 ± 0.12 pg/µg/h
Insulin secretion ([1]; 1 nM test compd.): 22.7 ± 0.17 pg/µg/h
Insulin secretion ([1]; 10 nM test compd.): 36.5 ± 0.05 pg/µg/h

CCc1cc(OC)ccc1-c1ccc(CC(NC(=O)[C@H](CC(=O)O)NC(=O)[C@H](CO)NC(=O)[C@@H](NC(=O)[C@H](Cc2ccccc2)NC(=O)[C@@H](NC(=O)CNC(=O)[C@H](CCC(N)=O)NC(=O)C2(NC(=O)[C@H](Cc3c[nH]cn3)NC(=O)[C@@H](N)C(C)C)CCCC2)[C@@H](C)O)[C@@H](C)O)C(=O)NC(C)(CCCc2ccccc2)C(N)=O)cc1 (some centres unmarked) [compound 85] (H-VH[Ac5c]QGTFTSD[ξBip(2'-Et-4'-OMe)][ξαMe(hhPhe)]-NH2)
Insulin secretion ([1]; 0.1 nM test compd.): 12.1 ± 0.52 pg/µg/h
Insulin secretion ([1]; 1 nM test compd.): 14.1 ± 0.16 pg/µg/h
Insulin secretion ([1]; 10 nM test compd.): 28.0 ± 0.36 pg/µg/h

CCc1cc(OC)ccc1-c1ccc(CC(C)(NC(=O)[C@H](CC(=O)O)NC(=O)C(C)(CO)NC(=O)[C@@H](NC(=O)C(C)(Cc2ccccc2F)NC(=O)[C@@H](NC(=O)CNC(=O)[C@H](CCC(N)=O)NC(=O)C2(C)CCCN2C(=O)[C@H](Cc2c[nH]cn2)NC(=O)[C@@H](N)C(C)C)[C@@H](C)O)[C@@H](C)O)C(=O)NC(C)(CCCc2ccccc2)C(N)=O)cc1 (some centres unmarked) [compound 168] (H-VH[ξαMeP]QGT[ξαMePhe(2-F)]T[ξαMeS]D[ξαMeBip(2'-Et,4'-OMe)][ξαMe(hhPhe)]-NH2)
Insulin secretion ([1]; 0.1 nM test compd.): 11.9 ± 0.17 pg/µg/h
Insulin secretion ([1]; 1 nM test compd.): 14.2 ± 0.13 pg/µg/h
Insulin secretion ([1]; 10 nM test compd.): 27.6 ± 0.16 pg/µg/h

CCc1cc(OC)ccc1-c1ccc(CC(C)(NC(=O)[C@H](CC(=O)O)NC(=O)[C@H](CO)NC(=O)[C@@H](NC(=O)[C@H](Cc2ccccc2)NC(=O)[C@@H](NC(=O)CNC(=O)[C@H](CCC(=O)O)NC(=O)[C@H](C)NC(=O)[C@H](Cc2c[nH]cn2)NC(=O)[C@@H](NC(=O)[C@@H](N)C(C)C)C(C)C)[C@@H](C)O)[C@@H](C)O)C(=O)NC(CCCc2ccccc2)C(N)=O)cc1 (some centres unmarked) [compound 210] (H-VVHAEGTFTSD[ξαMeBip(2'-Et,4'-OMe)][ξhhPhe]-NH2)
Insulin secretion ([1]; 0.1 nM test compd.): 16.3 ± 0.15 pg/µg/h
Insulin secretion ([1]; 1 nM test compd.): 22.4 ± 0.21 pg/µg/h
Insulin secretion ([1]; 10 nM test compd.): 36.2 ± 0.11 pg/µg/h

CCc1cc(OC)ccc1-c1ccc(CC(C)(NC(=O)C(C)(CC(=O)O)NC(=O)[C@H](CO)NC(=O)[C@@H](NC(=O)C(C)(Cc2c(F)cccc2F)NC(=O)[C@@H](NC(=O)CNC(=O)[C@H](CCC(=O)O)NC(=O)[C@H](C)NC(=O)[C@H](Cc2c[nH]cn2)NC(=O)[C@@H](N)C(C)C)[C@@H](C)O)[C@@H](C)O)C(=O)NC(CCCc2ccccc2)C(N)=O)cc1 (some centres unmarked) [compound 78] (H-VHAEGT[ξαMePhe(2,6-F2)]TS[ξαMeD][ξαMeBip(2'-Et,4'-OMe)][ξhhPhe]-NH2)
Insulin secretion ([1]; 0.1 nM test compd.): 16.3 ± 0.15 pg/µg/h
Insulin secretion ([1]; 1 nM test compd.): 22.4 ± 0.21 pg/µg/h
Insulin secretion ([1]; 10 nM test compd.): 36.2 ± 0.11 pg/µg/h
